In experiment [1] the target is T1, Peroxisome proliferator-activated receptor delta (Homo sapiens, UniProt Q03181).
T1 sequence (Q03181 whole entry): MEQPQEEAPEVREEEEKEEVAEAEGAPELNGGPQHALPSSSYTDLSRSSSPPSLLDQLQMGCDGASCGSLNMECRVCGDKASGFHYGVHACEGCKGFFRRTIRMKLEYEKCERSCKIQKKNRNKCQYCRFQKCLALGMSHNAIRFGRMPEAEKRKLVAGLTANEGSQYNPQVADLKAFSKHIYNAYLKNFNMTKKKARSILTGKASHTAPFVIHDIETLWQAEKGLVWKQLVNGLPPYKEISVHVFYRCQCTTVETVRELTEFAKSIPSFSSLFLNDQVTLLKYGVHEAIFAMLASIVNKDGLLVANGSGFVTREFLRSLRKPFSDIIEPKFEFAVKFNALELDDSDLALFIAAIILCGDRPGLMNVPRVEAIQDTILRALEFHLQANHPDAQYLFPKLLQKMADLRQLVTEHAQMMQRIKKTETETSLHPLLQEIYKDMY
Put plainly: Agonist activity at pSG5-Gal4-tagged human PPAR-beta/delta ligand binding domain expressed in COS1 cells assessed as receptor activation incubated for 19 hrs by pGL3-5XUAS-SV40 luciferase reporter gene assay. The format is cell-based. The conditions noted are these: cos-1. In general terms: A reporter such as luciferase makes a cellular process visible.

Experiment [2] concerns the target T1, Peroxisome proliferator-activated receptor delta. Put plainly: Antagonist activity against pSG5-Gal4-tagged human PPAR-beta/delta ligand binding domain expressed in COS1 cells assessed as inhibition of GW501516-induced receptor activation incubated for 19 hrs by pGL3-5XUAS-SV40 luciferase reporter gene assay. The experiment is classed as cell-based, COS-1. The conditions noted are these: for pIC50: read-out: IC50.

Experiment [3] concerns the target T2, Peroxisome proliferator-activated receptor gamma (Homo sapiens) (UniProt P37231).
T2 sequence (whole entry): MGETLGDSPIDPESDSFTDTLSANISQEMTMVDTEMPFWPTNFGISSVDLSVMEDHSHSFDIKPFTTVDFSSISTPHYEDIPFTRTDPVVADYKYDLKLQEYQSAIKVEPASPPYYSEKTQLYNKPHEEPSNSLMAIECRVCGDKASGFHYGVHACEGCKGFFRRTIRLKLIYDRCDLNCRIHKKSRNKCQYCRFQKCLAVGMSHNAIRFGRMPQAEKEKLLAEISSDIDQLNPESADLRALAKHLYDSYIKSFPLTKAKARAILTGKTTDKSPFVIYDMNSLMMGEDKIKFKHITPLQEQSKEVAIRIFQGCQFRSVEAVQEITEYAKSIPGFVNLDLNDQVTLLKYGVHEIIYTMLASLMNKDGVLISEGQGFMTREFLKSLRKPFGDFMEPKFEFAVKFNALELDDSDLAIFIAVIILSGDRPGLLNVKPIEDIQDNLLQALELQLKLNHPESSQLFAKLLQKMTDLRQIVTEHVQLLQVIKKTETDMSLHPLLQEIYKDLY
The experiment in a line: Antagonist activity against pSG5-Gal4-tagged human PPAR-gamma ligand binding domain expressed in COS1 cells assessed as inhibition of rosiglitazone-induced receptor activation at 20 nM to 20000 nM incubated for 19 hrs by pGL3-5XUAS-SV40 luciferase reporter gene assay. Conditions: COS-1. The format is cell-based.

In experiment [4] the target is T3, Peroxisome proliferator-activated receptor alpha (Homo sapiens) (UniProt Q07869).
T3 sequence (whole entry): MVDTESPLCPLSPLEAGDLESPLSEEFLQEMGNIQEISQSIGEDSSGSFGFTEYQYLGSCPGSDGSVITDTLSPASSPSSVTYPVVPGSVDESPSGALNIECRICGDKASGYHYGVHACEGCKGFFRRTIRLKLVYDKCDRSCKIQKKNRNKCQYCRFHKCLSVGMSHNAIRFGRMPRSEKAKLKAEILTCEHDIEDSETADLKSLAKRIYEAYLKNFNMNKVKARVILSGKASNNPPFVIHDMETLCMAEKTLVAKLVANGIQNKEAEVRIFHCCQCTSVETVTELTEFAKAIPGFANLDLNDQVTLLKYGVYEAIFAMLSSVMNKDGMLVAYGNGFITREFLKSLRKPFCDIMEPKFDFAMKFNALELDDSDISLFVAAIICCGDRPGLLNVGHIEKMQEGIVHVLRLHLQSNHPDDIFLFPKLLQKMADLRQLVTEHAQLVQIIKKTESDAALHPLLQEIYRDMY
The experiment in a line: Antagonist activity against pSG5-Gal4-tagged human PPAR-alpha ligand binding domain expressed in COS1 cells assessed as inhibition of bezafibrate-induced receptor activation at 1 nM to 100000 nM incubated for 19 hrs by pGL3-5XUAS-SV40 luciferase reporter gene assay. Conditions: COS-1. The format is cell-based.

pIC50: −log10 of the molar value. Calls of active or inactive are those of the source. No cut-off for these calls is given here.

`Cc1nc(-c2ccc(C(F)(F)F)cc2)sc1C(=O)NCCS(=O)(=O)c1ccc(C(F)(F)F)cn1`: the EC50 entry in experiment [1] is “Not Active”. The negative-log IC50 (pIC50) (usually the negative decadic logarithm of the IC50, by convention in mol/L) in experiment [2] was 5.00. Moreover, the inhibition entry in experiment [3] and in experiment [4] was “inactive” in each case.

Regarding `Cc1nc(-c2ccc(C(F)(F)F)cc2)sc1C(=O)NCCS(=O)(=O)c1ccccn1`, in experiment [2] (cos-1), the IC50 entry is “Not Active”.

Regarding `O=C(NCCS(=O)(=O)c1ccc(C(F)(F)F)cn1)c1ccc(Cl)cc1`, in experiment [1], the EC50 entry is recorded as “Not Active”. For the same molecule, the pIC50 in experiment [2] is 5.30.
